Experiment: gradient 5% acetonitrile 3 min, to 50% in 2 min, to 85% in 15 min, held 3 min, 100 µL/min
Details: column: Zorbax Extend-C18 2.1 x 50 mm; eluents: water / acetonitrile, 0.1% formic acid
Outline: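 A Zorbax Extend-C18 column (2.1 × 50 mm, 1.8 μm) run at 100 μL/min with water and acetonitrile, both containing 0.1% formic acid, separated mixtures of ~100 pure standards. The HPLC was coupled to a quadrupole time-of-flight mass spectrometer operated in positive and negative ionization mode, with dead and dwell volumes of 40 μL and 900 μL. Each retention time was taken from a computationally picked adduct peak that was then manually inspected.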

Row | Structure (SMILES) | RP-LC retention time [s]
1 | CC1CCCC(NC(=O)c2cc3sc(Cl)cc3n2C)C1C (stereo not given) | 1230
2 | COc1ccc(-c2nc3cnc(Br)cn3c2Nc2ccc3c(c2)OCO3)cc1 | 926
3 | c1ccc2c(c1)OCC(c1nc(-c3ccc(-n4ccnc4)nc3)no1)O2 (stereo not given) | 707
4 | COc1cccc(N2C(=O)C3N=NN(Cc4nc(-c5ccc(Cl)cc5)no4)C3C2=O)c1 (stereo not given) | 1010
5 | CCC(C)NC(=O)Cn1nc(-c2ccccc2)c2cc(Cl)ccc21 (stereo not given) | 1060
6 | CS(=O)(=O)N1CCC(C(=O)Nc2nnc(SCc3cc(F)ccc3F)s2)CC1 | 762
7 | O=C(Cc1c[nH]c2ccccc12)N1CCCN(c2cc(-c3ccc(Br)cc3)[nH]n2)CC1 | 722
8 | Fc1ccc(Cc2noc(-c3nc(-c4ccccc4)no3)n2)cc1 | 1160
9 | CCC1Oc2ccc(S(=O)(=O)N3CCC(C(=O)N4CCOCC4)CC3)cc2NC1=O (stereo not given) | 691
10 | Cn1nc(C(=O)N2CCC3(CC2)N=C(c2ccccc2)NO3)c2ccccc21 | 809
11 | CCN1c2ccc(C(=O)Nc3ccc4c(c3)OCCO4)cc2-c2ccccc2S1(=O)=O | 990
12 | CCN(CC)CCNC(=O)Cc1noc2ccc(C)cc12 | 604
13 | CCc1cc(=O)n(CC(=O)NCc2ccc(OC)cc2)c(N)n1 | 631
14 | O=C(NC1CCCc2ccccc21)C1CCN(Cc2noc(-c3ccc(F)cc3)n2)CC1 (stereo not given) | 713
15 | COc1ccc(Cl)cc1S(=O)(=O)NCC1(C)CCOCC1 | 874
16 | Cc1nc2cc(-c3noc(-c4ccccc4Br)n3)ccc2o1 | 1140
17 | N#Cc1cccc(NS(=O)(=O)c2cccc(-c3nc(-c4ccccc4)no3)c2)c1 | 1080
18 | Cc1noc(CN2CCN(C3CCN(Cc4cc(Cl)ccc4F)C3)C2=O)n1 (stereo not given) | 713
19 | CC(C)CNS(=O)(=O)c1cc(-c2nc(CC(C)C)cs2)cs1 | 1170
20 | O=C(c1ccco1)N1CCC2(CC1)NC(=O)N(Cc1ccc(F)cc1)C2=O | 692
21 | CCc1nnc(-c2ccc3ccn(CC(=O)Nc4ccc5c(c4)OCCO5)c3c2)o1 | 811
22 | NS(=O)(=O)c1cccnc1Nc1cccc(Cl)c1 | 855
23 | CN1CCN(Cc2nn(C)c3c2CN(S(=O)(=O)c2ccccc2Cl)CC3)CC1 | 615
24 | CCC(=O)N1c2ccc(S(=O)(=O)CCC(=O)N3CCN(c4ccccc4F)CC3)cc2CC1C (stereo not given) | 894
25 | COCCN1C(=O)C(CC(=O)NCCCn2cccn2)=C2CCCCC21 (stereo not given) | 634
26 | COc1ccc(OC)c(CNC(=O)C2c3ccccc3C(=O)N3CCc4ccccc4C23)c1 (stereo not given) | 867
27 | CN(C)c1ccc(CNC(=O)CN2CCN(C(=O)Nc3ccc(Br)cc3)CC2=O)cc1 | 611
28 | CCC(=O)N1CCc2c(-c3ccccc3)cccc2[C@H]1C | 1030
29 | O=C1C2N=NN(Cc3nc(-c4ccc(Cl)cc4)no3)C2C(=O)N1c1ccc2c(c1)CCC2 (stereo not given) | 1160
30 | COc1cccc(CN2CCC3(CC2)c2[nH]c4ccccc4c2CCN3C)c1 | 596

Other lines, results leading:

Row | RP-LC retention time [s] | Structure (SMILES)
31 | 1020 | CCc1cccc(C)c1NS(=O)(=O)c1ccc(-c2c(C)noc2C)cc1
32 | 609 | CCn1ccc2cc(S(=O)(=O)N3CCCC(C(=O)N4CCN(c5ccccn5)CC4)C3)ccc21 (stereo not given)
33 | 707 | CCn1cc(CCNC(=O)Nc2cc(OC)cc(OC)c2)c2cccnc21
34 | 1040 | Cc1cc(=O)n(CC(=O)Nc2ccc(F)cc2)c(-c2ccc(F)cc2)n1
35 | 737 | O=C(NCCC1CCN(C(=O)Nc2ccc(F)cc2F)CC1)c1cccs1
36 | 635 | CCn1c(N2CCCC(C(=O)NCC3CCN(Cc4cccc(F)c4)CC3)C2)cc(=O)n(C)c1=O (stereo not given)
37 | 993 | CCn1c(=O)c(N2CCC(NC(=O)Nc3cc(C)ccc3C)CC2)nc2cccnc21
38 | 733 | CCOC(=O)C1CCN(c2cc3c(cc2NC(=O)C(C)C)n(C)c(=O)c(=O)n3C)CC1
39 | 578 | CCN1CCN(CCNC(=O)c2ccc3nc(-c4ccc(Cl)cc4)cn3c2)CC1
40 | 659 | CCCn1cnnc1C1CCCCN1C(=O)NCc1ccc(OC)cc1 (stereo not given)
41 | 808 | COCCN1CC2(CCN(S(=O)(=O)c3c(C)cc(C)cc3C)CC2)C1c1ccccc1 (stereo not given)
42 | 747 | CCCNS(=O)(=O)c1cc(-c2c(CC)noc2NC(C)=O)ccc1C
43 | 654 | CC(C)N1CCN(C(=O)C2=NN(c3ccc(Cl)cc3)c3ncccc3S2(=O)=O)CC1
44 | 878 | COc1cc(C(=O)Nc2cnn(C)c(=O)c2N2CCCCC2)cc(OC)c1OC
45 | 714 | CCc1cc(=O)n(CC(=O)Nc2ccc(F)cc2)c(N2CCOCC2)n1
46 | 890 | Cc1nc(N2CCOCC2)c2c(C(=O)Nc3cccc(Cl)c3)c(C)oc2n1
47 | 705 | CCC1CN2C=NC(N3CCN(S(=O)(=O)c4cc(Cl)ccc4OC)CC3)=CC2=N1 (stereo not given)
48 | 757 | Cc1ccc(-n2ccn3c(CCC(=O)NCCc4c[nH]c5ccccc45)nnc3c2=O)cc1C

Row | RP-LC retention time [s] | Structure (SMILES)
49 | 564 | CCN1CCN(c2cc(C(=O)O)c3cc(NC(=O)C(C)(C)C)ccc3n2)CC1
50 | 919 | COc1ccc(N2CCN(CCNc3cc(C(=O)O)c4ccccc4n3)CC2)cc1
51 | 678 | COc1ccc(NC(=O)N2CCC3(C2)C(=O)Nc2ccccc23)c(OC)c1 (stereo not given)
52 | 554 | COc1cccc(C(O)CN2CCN(c3ccccn3)CC2)c1 (stereo not given)
53 | 689 | Cc1cccc(-c2nc(Nc3ccc(C(=O)O)cc3)c3ccccc3n2)c1
54 | 839 | Cc1noc(-c2cc(=O)n(CC(=O)Nc3c(C)cccc3C)c3ccccc23)n1
55 | 845 | O=C(Cc1csc(Nc2ncccn2)n1)Nc1ccc2c(c1)Cc1ccccc1-2
56 | 610 | COc1cccc(N2CCN(Cc3nc4nc(C)cc(N(C)C)n4n3)CC2)c1
57 | 605 | CCc1ccc2nc(C)cc(C(=O)NC3CC3)c2c1
58 | 694 | COc1ccc(C2CCCN2C(=O)c2cnn3cccnc23)cc1 (stereo not given)
59 | 626 | Cc1ccc(-n2c(=O)c3c(cc(C)n3C)n(CC(=O)Nc3c(C)cc(C)cc3C)c2=O)cc1
60 | 715 | O=C1COc2ccc(S(=O)(=O)N3CCC(C(=O)Nc4ccc5c(c4)OCO5)CC3)cc2N1
61 | 906 | COc1ccc(Nc2c(C(=O)N3CCCC3)cnc3nc(C)ccc23)cc1OC
62 | 722 | COc1cccc(NC(=O)C2CCCN2S(=O)(=O)c2cc3c(cc2C)NC(=O)CO3)c1 (stereo not given)
63 | 639 | Cc1cc(C)c2c(N3CCOCC3)nc(C(=O)NCc3cccc(F)c3)nc2n1
64 | 684 | CCN1CCn2cc(S(=O)(=O)Nc3ccc(OC)cc3)cc2C1=O
65 | 756 | Cn1nc(C(=O)N2CCCC(C(=O)Nc3ccccc3)C2)c2c1CCN(C(=O)c1cccc(F)c1)C2 (stereo not given)

— the METLIN SMRT retention time set (Domingo-Almenara et al. 2019)
